Assay results from the CheMixHub viscosity set.

Test: xn = mol fraction of the nth substance listed

CCCCOC(=O)c1ccccc1 + CCCCCC
101 kPa
Conditions	viscosity [mPa·s]
298.15 K, x2 = 0.0788	2.272
298.15 K, x2 = 0.1269	2.042
298.15 K, x2 = 0.1801	1.81
298.15 K, x2 = 0.2539	1.536
298.15 K, x2 = 0.302	1.377
298.15 K, x2 = 0.3485	1.244
298.15 K, x2 = 0.4084	1.088
298.15 K, x2 = 0.4955	0.896
298.15 K, x2 = 0.5498	0.796
298.15 K, x2 = 0.6402	0.654
298.15 K, x2 = 0.6861	0.594
298.15 K, x2 = 0.7746	0.495
298.15 K, x2 = 0.8136	0.458
298.15 K, x2 = 0.8494	0.427
298.15 K, x2 = 0.8868	0.399
298.15 K, x2 = 0.9265	0.37
298.15 K, x2 = 0.961	0.348
308.15 K, x2 = 0.0668	1.923
308.15 K, x2 = 0.1277	1.7
308.15 K, x2 = 0.1875	1.5
308.15 K, x2 = 0.2458	1.331
308.15 K, x2 = 0.2926	1.211
308.15 K, x2 = 0.3554	1.063
308.15 K, x2 = 0.4013	0.966
308.15 K, x2 = 0.4549	0.863
308.15 K, x2 = 0.5013	0.785
308.15 K, x2 = 0.5515	0.707
308.15 K, x2 = 0.5967	0.644
308.15 K, x2 = 0.6407	0.59
308.15 K, x2 = 0.6896	0.536
308.15 K, x2 = 0.728	0.497
308.15 K, x2 = 0.7727	0.457
308.15 K, x2 = 0.8106	0.427
308.15 K, x2 = 0.8512	0.396
308.15 K, x2 = 0.8888	0.37
308.15 K, x2 = 0.9482	0.337
318.15 K, x2 = 0.0337	1.707
318.15 K, x2 = 0.1077	1.48
318.15 K, x2 = 0.1661	1.326
318.15 K, x2 = 0.231	1.166
318.15 K, x2 = 0.2845	1.05
318.15 K, x2 = 0.3438	0.934
318.15 K, x2 = 0.3951	0.846
318.15 K, x2 = 0.4512	0.757
318.15 K, x2 = 0.4998	0.691
318.15 K, x2 = 0.5513	0.624
318.15 K, x2 = 0.5518	0.625
318.15 K, x2 = 0.646	0.523
318.15 K, x2 = 0.6884	0.486
318.15 K, x2 = 0.7317	0.447
318.15 K, x2 = 0.7749	0.412
318.15 K, x2 = 0.8206	0.383
318.15 K, x2 = 0.8608	0.36
318.15 K, x2 = 0.9115	0.327
318.15 K, x2 = 0.9342	0.317

CCC(O)CO (centres undefined) + CN(C)C=O
308.15 K, 101 kPa
Conditions	viscosity [mPa·s]
x1 = 0.0519	0.748
x1 = 0.1008	0.855
x1 = 0.2013	1.113
x1 = 0.2983	1.444
x1 = 0.4099	2.065
x1 = 0.4883	2.645
x1 = 0.5694	3.576
x1 = 0.7139	7.387
x1 = 0.8896	16.22
x1 = 0.9489	21.9

CCCBr + Cc1ccc(C)cc1
308.15 K, 101 kPa
Conditions	viscosity [mPa·s]
x2 = 0.1032	0.4446
x2 = 0.2012	0.4528
x2 = 0.3051	0.4596
x2 = 0.4051	0.469
x2 = 0.503	0.477
x2 = 0.6038	0.4865
x2 = 0.7055	0.4971
x2 = 0.8019	0.5027
x2 = 0.8965	0.5124

CCCC(=O)OC + CCCCCCC
Conditions	viscosity [mPa·s]
293.15 K, 101.33 kPa, x1 = 0.08428	0.408
293.15 K, 101.33 kPa, x1 = 0.1292	0.409
293.15 K, 101.33 kPa, x1 = 0.1965	0.413
293.15 K, 101.33 kPa, x1 = 0.2883	0.419
293.15 K, 101.33 kPa, x1 = 0.3831	0.429
293.15 K, 101.33 kPa, x1 = 0.4997	0.445
293.15 K, 101.33 kPa, x1 = 0.5976	0.462
293.15 K, 101.33 kPa, x1 = 0.6939	0.483
293.15 K, 101.33 kPa, x1 = 0.7977	0.51
293.15 K, 101.33 kPa, x1 = 0.905	0.542
293.15 K, 101.33 kPa, x1 = 0.9304	0.552
303.15 K, 101.33 kPa, x1 = 0.05501	0.368
303.15 K, 101.33 kPa, x1 = 0.1135	0.369
303.15 K, 101.33 kPa, x1 = 0.1897	0.372
303.15 K, 101.33 kPa, x1 = 0.2828	0.377
303.15 K, 101.33 kPa, x1 = 0.4056	0.388
303.15 K, 101.33 kPa, x1 = 0.5087	0.4
303.15 K, 101.33 kPa, x1 = 0.5969	0.413
303.15 K, 101.33 kPa, x1 = 0.6951	0.431
303.15 K, 101.33 kPa, x1 = 0.803	0.454
303.15 K, 101.33 kPa, x1 = 0.9043	0.481
303.15 K, 101.33 kPa, x1 = 0.9349	0.49
308.15 K, 101.3 kPa, x1 = 0.0525	0.357
308.15 K, 101.3 kPa, x1 = 0.156	0.366
308.15 K, 101.3 kPa, x1 = 0.1959	0.369
308.15 K, 101.3 kPa, x1 = 0.2969	0.379
308.15 K, 101.3 kPa, x1 = 0.4989	0.406
308.15 K, 101.3 kPa, x1 = 0.5971	0.421
308.15 K, 101.3 kPa, x1 = 0.7995	0.459
308.15 K, 101.3 kPa, x1 = 0.8524	0.47
308.15 K, 101.3 kPa, x1 = 0.9236	0.487
308.15 K, 101.3 kPa, x1 = 0.9531	0.494
308.15 K, 101.3 kPa, x2 = 0.0175	0.501
313.15 K, 101.33 kPa, x1 = 0.06751	0.334
313.15 K, 101.33 kPa, x1 = 0.1218	0.335
313.15 K, 101.33 kPa, x1 = 0.1984	0.338
313.15 K, 101.33 kPa, x1 = 0.2903	0.342
313.15 K, 101.33 kPa, x1 = 0.4044	0.351
313.15 K, 101.33 kPa, x1 = 0.5173	0.363
313.15 K, 101.33 kPa, x1 = 0.5954	0.373
313.15 K, 101.33 kPa, x1 = 0.6931	0.388
313.15 K, 101.33 kPa, x1 = 0.8053	0.409
313.15 K, 101.33 kPa, x1 = 0.9053	0.432
313.15 K, 101.33 kPa, x1 = 0.9355	0.44
318.15 K, 101.3 kPa, x1 = 0.0525	0.326
318.15 K, 101.3 kPa, x1 = 0.156	0.337
318.15 K, 101.3 kPa, x1 = 0.1959	0.341
318.15 K, 101.3 kPa, x1 = 0.2969	0.352
318.15 K, 101.3 kPa, x1 = 0.4989	0.379
318.15 K, 101.3 kPa, x1 = 0.5971	0.397
318.15 K, 101.3 kPa, x1 = 0.7995	0.427
318.15 K, 101.3 kPa, x1 = 0.8524	0.437
318.15 K, 101.3 kPa, x1 = 0.9236	0.451
318.15 K, 101.3 kPa, x1 = 0.9531	0.458
318.15 K, 101.3 kPa, x2 = 0.0175	0.465
